# Entries after “also recorded” stand apart in the source; their conditions may differ.
# Tests used:
# [1] = tested on: IL-1 production in LPS-stimulated human peripheral blood monocytes; conditions: cited from earlier work
# [2] = tested on: myocardial ischemia/reperfusion (I/R) injury in C57BL6 mice; assay: Infarct size after myocardial ischemia/reperfusion in mice (Evans blue/TTC staining); assay type: in vivo; conditions: for effect on infarct size (in words): administered 5 minutes prior to reperfusion, versus saline/PBS
# Procedure: Male C57BL6 mice (8-12 weeks old, 25-30 grams of weight) underwent 30 minutes of ischemia followed by 24 hours of reperfusion.
# Experimental compounds were administered 5 minutes prior to reperfusion via the tail vein. […] OPN-301 (OPN301) is a murine IgG1 anti-TLR2 antibody (mouse Toll-like Receptor 2 (TLR2) antibody, clone T2.5, HyCult Biotechnology b.v., Cell Sciences, Canton, USA: catalogue number 1054).
# Mice were anesthetized with a mixture of […]™ (N-(1-phenethyl-4-piperidyl)-N-phenyl-propanamide) 0.05 mg/kg, DORMICUM™ (Midazolum, 8-chloro-6-(2-fluorophenyl)-1-methyl-4H-imidazo[1,5-a][1,4]benzodiazepine) 5 mg/kg and DOMITOR™ (medetomidine hydrochlorine) 0.5 mg/kg (intraperitoneal injection). Atropine ((8-methyl-8-azabicyclo[3.2.1]oct-3-yl) 3-hydroxy-2-phenylpropanoate) 0.05 mg/kg was subcutaneously administered before coronary ligation. Core body temperature was maintained between 36° C. and 37.5° C. during surgery by continuous monitoring with a rectal thermometer and automatic heating blanket. Mice were […] and ventilated (Harvard Apparatus Inc.) with 100% oxygen. The left anterior descending (LAD) coronary artery was ligated using an 8-0 vicryl suture with a section of polyethylene-10 tubing placed over the LAD.
# Ischemia was confirmed by bleaching of the myocardium. Reperfusion was initiated by releasing the ligature and removing the polyethylene-10 tubing. Reperfusion of the endangered myocardium is characterized by typical hyperaemia in the first few minutes. A piece of the loosened suture was left in place in order to determine ischemic area. The chest wall was closed and the animals received subcutaneously […]™ (atipamezole hydrochloride, a sedation reversal agent for DOMITOR™ (medetomidine hydrochlorine)) 2.5 mg/kg, ANEXATE™ (Flumazenil (also known as flumazepil)) 0.5 mg/kg and […]™ (buprenorphine) 0.1 mg/kg.
# Infarct Size (IS) is expressed as a percentage of the Area-At-Risk (AAR) and total Left Ventricle (LV). The ratio of AAR/LV is a measure for the extent of myocardial tissue that underwent ischemia and reperfusion (i.e. endangered area). The ratio IS/AAR is an accurate measurement to determine infarct size within endangered myocardium and is the primary endpoint from which the efficacy of treatment is addressed. The secondary endpoint IS/LV ratio is the percentage infarcted area within the total left ventricular wall.
# To determine the AAR, the LAD was ligated once again (at the level marked by the suture left in place) and 4% Evans blue dye was injected via the thoracic aorta in a retrograde fashion. Hearts were rapidly explanted, rinsed in 0.9% saline and wrapped in a clear food wrap and frozen at −20° C. for 1 hour. Hearts were then mechanically sliced into five 1 mm cross sections. Heart sections were incubated in 1% triphenyltetrazolium chloride (Sigma-Aldrich) at 37° C. for 15 minutes before placing them in formaldehyde for another 15 minutes. Viable tissue stained red and infarcted tissue appeared white. Heart sections were digitally photographed (CANON EOS 400D) under a microscope (CARL ZEISS™). IS, MR and total LV area were measured using ImageJ software (version 1.34).
# All data are expressed as Mean±SD. After skewness±SD and kurtosis±SD confirmed normality, a one-way ANOVA with Bonferroni adjustment (Table 2) and a Dunnett's T test (2 sided) (Table 4). was used to test differences between groups. Kolmogorov-Smirnov test performed if abnormal distribution was suspected (i.e. when kurtosis and skewness values are twice their standard deviations). All statistical analyses were performed using SPSS version 13.0 for Windows (SPSS, Chicago, USA) and p<0.05 was considered significant.
# [3] = Table 1, 30 min ischemia/24 h reperfusion, i.v. 5 min prior to reperfusion, mAb and IgG 10 mg/kg, SB239063 0.5 mg/kg, n=10
# [4] = Table 2, Bonferroni, (J) group IgG isotype
# [5] = Table 2, Bonferroni, (J) group PBS
# [6] = Table 2, Bonferroni, (J) group exp. mAB
# [7] = Table 3 (amended, saline control set), 30 min ischemia/24 h reperfusion, n=10
# [8] = Table 5, Dunnett, (J) group Saline
substance,measurement,setting,value
trans-1-(4-Hydroxycyclohexyl)-4-(fluorophenyl)-5-(2-methoxypyrimidin-4-yl) imidazole [SB239063],IC50,[1],120 nM
same,"IS_AAR (infarct size as percentage of Area At Risk), Mean",[2]; [3],31.4000%
same,"IS_LV (infarct size as percentage of total Left Ventricle), Mean",[2]; [3],12.0100%
same,IS_AAR Mean Difference (I-J),[2]; [4],.25400
same,IS_LV Mean Difference (I-J),[2]; [4],−.85200
same,IS_AAR Mean Difference (I-J),[2]; [5],−4.185
same,IS_LV Mean Difference (I-J),[2]; [5],−5.3
same,IS_AAR Mean Difference (I-J),[2]; [6],13.51(*)
same,IS_LV Mean Difference (I-J),[2]; [6],5.908(*)
same,IS/AAR Mean,[2]; [7],31.7250%
same,IS/LV Mean,[2]; [7],12.3220%
same,IS_AAR Mean Difference (I-J),"[2]; Table 4, Dunnett, (J) group Saline, n=10 groups",−2.776
same,IS_AAR Mean Difference (I-J),[2]; [8],−2.776
same,IS_LV Mean Difference (I-J),[2]; [8],−1.74
same,effect on infarct size (in words),[2],did not reduce infarct size
same,effect on infarct size (in words),[2]; listed as p38 inhibitor,no reduction of infarct size; also recorded: no difference in infarct size
same,difference in mean IS/LV,"[2]; versus PBS treated mice, not statistically significant (FIG. 7)",−26%
